The values that follow come from ChEMBL document CHEMBL3813610, “Proteasome inhibition by new dual warhead containing peptido vinyl sulfonyl fluorides” (Bioorg Med Chem, 2016).

This test in a line: Inhibition of 20S proteasome (unknown origin) using Suc-LLVY-AMC as substrate preincubated for 1 hr followed by substrate addition incubated for 1 hr by fluorescence analysis. Also noted: species or system Homo sapiens.

In general, IC50 refers to the concentration that gives 50% inhibition. High values mean weaker potency, low ones greater potency. As for `CC(C)C[C@@H](CS(=O)(=O)F)NC(=O)[C@H](CC(C)C)NC(=O)[C@H](CC(C)C)NC(=O)OCc1ccccc1`, the IC50 came out at 89.1 nM.

The compound `CC(C)C[C@@H](CS(=O)(=O)F)NC(=O)[C@H](CC(C)C)NC(=O)[C@H](CC(C)C)NC(=O)[C@H](CC(C)C)NC(=O)OCc1ccccc1` showed an IC50 of 17.8 nM. Under `CC(C)C[C@@H](/C=C/S(=O)(=O)F)NC(=O)[C@H](CC(C)C)NC(=O)[C@H](CC(C)C)NC(=O)[C@H](CC(C)C)NC(=O)OCc1ccccc1` stands 99 nM.

The compound `CC(C)C[C@@H](/C=C/S(=O)(=O)F)NC(=O)[C@H](CC(C)C)NC(=O)[C@H](CC(C)C)NC(=O)OCc1ccccc1` gave an IC50 of 218 nM.
